Measured values reported in patent US5147876A, “2,6-di,2,4,6-, 2,5,6-tri and 2,4,5,6-tetra-substituted pyrimidines, their pharmaceutically acceptable salts, pharmaceutical compositions containing same and their use in the treatment of neurological diseases” (Mitsui Petrochemical Industries, Ltd., priority 1988, dated 1992).

Columns and labels:
Acute toxicity on mice = assay type: in vivo; settings: mouse, in vivo, ip, 24 hours after administration; read-out: Estimated LD50
Protocol: The acute toxicity of the compounds of the invention was examined by the following method.
Male ddy-strain 5-week old mice, 4-6- per group, were used as experimental animals. Each of the compounds was intraperitoneally (i.p.), and the toxicity of the compound was assessed 24 hours after the administration.

[1] = system: neuro-2a (mouse neuroblastoma cells); experiment: Action on neuro-2a: proportion of cells containing outgrown neurites; assay type: cell-based; settings: mean ± S.D.
Protocol: (§1) The effects of the compounds of this invention on neuroblastoma cells were examined by the following method.
(§2) Mouse neuro 2a cells in the logarithmic growth period in the Dulbecco's modified Eagle's medium DMEM, containing 100 units/ml of penicillin G sodium and 100 micrograms/ml of streptomycin sulfate]containing 10 % of FCS were seeded in a 48-well plate so that the number of cells was 1,000 cells/well, and cultured for one day in 0.25 ml of the culture fluid in each well in an incubator containing 5 % of carbon dioxide gas in air at 37° C. Then, a 4 % aqueous glutaraldehyde solution in the same amount as a medium (0.25 ml) was added, and the culture fluid was left to stand at room temperature for 2 hours to fix the cells. After washing with water, a 0.05 % aqueous solution of methylene blue was added to stain the cells Under a microscope, the number of cells containing outgrown neurites (cells having at least one neurite with a length of at least two times as large as the long diameter of the cell) was counted visually, and the proportion of these cells in the entire cells was calculated. The well was observed over 5 or more visual fields (at least 2 % of the entire surface area of the well) continuous to the left and right from a mark put at the center of the well, and more than 200 cells was counted. One drug compound was used in 6 different concentrations at most, and three runs were conducted for each concentrations.

[2] = system: NS-20Y (mouse neuroblastoma cells); experiment: Activity on NS-20Y cells: appearance of neurites; assay type: cell-based
Protocol: as §1, §2
Mouse neuroblastoma cells NS-20Y were similarly cultured in a dish coated with polyornithine, and the effects of the compounds were examined.

**Q.** What does the source list for CN(C)c1nccc(N(C)C(=O)c2ccccc2)n1 [Compound 104]?
**A.** LD50 at 24 h (Acute toxicity on mice): 500 to 1000 mg/kg; Number of cells having neurites with a length at least two times the diameter of each cell/total number of cells ([1]; 0.03 mM): 2.5 ± 0.8%; Number of cells having neurites with a length at least two times the diameter of each cell/total number of cells ([1]; 0.1 mM): 4.1 ± 1.5%; Number of cells having neurites with a length at least two times the diameter of each cell/total number of cells ([1]; 0.3 mM): 7.7 ± 3.8%; Number of cells having neurites with a length at least two times the diameter of each cell/total number of cells ([1]; 1 mM): 3.6 ± 1.4%

**Q.** With CC1CCCN(c2nccc(N(C)C(=O)c3ccccc3)n2)C1 (stereo not drawn) [Compound 138] as the compound, how does the LD50 at 24 h (Acute toxicity on mice) read?
**A.** > 1000 mg/kg

**Q.** What about the “Number of cells having neurites with a length at least two times the diameter of each cell/total number of cells” value (“Number … of each cell/total number of cells” below) ([1]; 0.03 mM) of the same compound?
**A.** 6.3 ± 1.8%

**Q.** And the “Number … of each cell/total number of cells” value ([1]; 0.1 mM)?
**A.** 12.6 ± 4.1%

**Q.** Which results are given for CCCC1CCN(c2nccc(N(C)C(=O)c3ccccc3)n2)CC1 [Compound 146]?
**A.** LD50 at 24 h (Acute toxicity on mice): > 1000 mg/kg; Number of cells having neurites with a length at least two times the diameter of each cell/total number of cells ([1]; 0.03 mM): 8.7 ± 2.0%; Number of cells having neurites with a length at least two times the diameter of each cell/total number of cells ([1]; 0.1 mM): 40.0 ± 6.1%

**Q.** What does the source list for CC(C)C1CCN(c2nccc(N(C)C(=O)c3ccccc3)n2)CC1 [Compound 147-1]?
**A.** LD50 at 24 h (Acute toxicity on mice): > 1000 mg/kg; Number of cells having neurites with a length at least two times the diameter of each cell/total number of cells ([1]; 0.03 mM): 6.6 ± 0.4%; Number of cells having neurites with a length at least two times the diameter of each cell/total number of cells ([1]; 0.1 mM): 30.5 ± 6.1%

**Q.** For CC1CCCCN1c1nccc(N(C)C(=O)c2ccccc2)n1 (stereo not drawn) [Compound 154], which LD50 at 24 h (Acute toxicity on mice) is on record?
**A.** > 1000 mg/kg

**Q.** What about the “Number … of each cell/total number of cells” value ([1]; 0.03 mM) of the same compound?
**A.** 5.2 ± 1.5%

**Q.** And the “Number … of each cell/total number of cells” value ([1]; 0.1 mM)?
**A.** 16.2 ± 2.1%

**Q.** Which results are given for CCOc1ccc(C(=O)N(C)c2ccnc(N3CCC(c4ccccc4)CC3)n2)cc1 [Compound 171-5]?
**A.** LD50 at 24 h (Acute toxicity on mice): > 1000 mg/kg; Number of cells having neurites with a length at least two times the diameter of each cell/total number of cells ([1]; 0.01 mM): 7.2 ± 1.1%; Number of cells having neurites with a length at least two times the diameter of each cell/total number of cells ([1]; 0.1 mM): 28.4 ± 2.2%; Number of cells having neurites with a length at least two times the diameter of each cell/total number of cells ([1]; 0.3 mM): 32.7 ± 0.6%; Number of cells having neurites with a length at least two times the diameter of each cell/total number of cells ([1]; 1 mM): 14.0 ± 4.1%

**Q.** Which results are given for CC(=O)N(C)c1ccnc(N2CCc3ccccc3C2)n1 [Compound 312]?
**A.** LD50 at 24 h (Acute toxicity on mice): > 1000 mg/kg; Number of cells having neurites with a length at least two times the diameter of each cell/total number of cells ([1]; 0.03 mM): 4.5 ± 0.4%; Number of cells having neurites with a length at least two times the diameter of each cell/total number of cells ([1]; 0.1 mM): 9.7 ± 0.9%

**Q.** Which LD50 at 24 h (Acute toxicity on mice) does the source give for CN1CCN(c2nccc(N(C)C(=O)c3ccccc3)n2)CC1 [Compound 352] here?
**A.** 500 to 1000 mg/kg

**Q.** What about the “Number … of each cell/total number of cells” value ([1]; 0.1 mM) of the same compound?
**A.** 3.2 ± 1.9%

**Q.** And the “Number … of each cell/total number of cells” value ([1]; 0.3 mM)?
**A.** 9.9 ± 1.6%

**Q.** Which LD50 at 24 h (Acute toxicity on mice) does the source give for Cc1cnc(N2CCCCC2)nc1N(C)C(=O)c1ccccc1 [Compound 408] here?
**A.** 500 to 1000 mg/kg

**Q.** And the “Number … of each cell/total number of cells” value ([1]; 0.1 mM)?
**A.** 9.1 ± 1.8%

**Q.** And the “Number … of each cell/total number of cells” value ([1]; 0.3 mM)?
**A.** 9.6 ± 3.9%

**Q.** Which LD50 at 24 h (Acute toxicity on mice) does the source give for CCCN(C(=O)c1ccccc1)c1nccc(N2CCC(c3ccccc3)CC2)n1 [Compound 644] here?
**A.** > 1000 mg/kg

**Q.** And the “Number … of each cell/total number of cells” value ([1]; 0.03 mM)?
**A.** 26.1 ± 7.3%

**Q.** And the “Number … of each cell/total number of cells” value ([1]; 0.1 mM)?
**A.** 14.7 ± 7.3%

**Q.** With CNc1nc(N2CCCCC2)ncc1C [Compound 1094] as the compound, how does the “Number of cells in which neurites appeared/total number of cells” value ([2]; 24 hours, 0.1 mM) read?
**A.** 4/54

**Q.** And the “Number of cells in which neurites appeared/total number of cells” value ([2]; 24 hours, 0.4 mM)?
**A.** 7/48

**Q.** What about the “Number of cells in which neurites appeared/total number of cells” value ([2]; 48 hours, concentration printed "0. mM") of the same compound?
**A.** 2/50

**Q.** And the “Number … of each cell/total number of cells” value ([1]; 0.1 mM)?
**A.** 5.4 ± 1.9%

**Q.** What about the “Number … of each cell/total number of cells” value ([1]; 0.3 mM) of the same compound?
**A.** 16.9 ± 1.2%

**Q.** And the “Number … of each cell/total number of cells” value ([1]; 1 mM)?
**A.** 10.9 ± 1.1%

**Q.** With CNc1nc(C)cc(N2CCC(c3ccccc3)CC2)n1 [Compound 1158] as the compound, how does the LD50 at 24 h (Acute toxicity on mice) read?
**A.** < 250 mg/kg

**Q.** What about the “Number … of each cell/total number of cells” value ([1]; 0.03 mM) of the same compound?
**A.** 9.9 ± 1.4%

**Q.** And the “Number … of each cell/total number of cells” value ([1]; 0.1 mM)?
**A.** 18.4 ± 3.0%

**Q.** What about the “Number … of each cell/total number of cells” value ([1]; 0.3 mM) of the same compound?
**A.** 22.1 ± 6.7%

**Q.** And the “Number … of each cell/total number of cells” value ([1]; 1 mM)?
**A.** 19.1 ± 2.7%

**Q.** What does the source list for CC1CC(C)CN(c2nccc(N(C)C(=O)c3ccccc3)n2)C1 (stereo not drawn) [Compound 2004]?
**A.** LD50 at 24 h (Acute toxicity on mice): > 1000 mg/kg; Number of cells having neurites with a length at least two times the diameter of each cell/total number of cells ([1]; 0.03 mM): 6.6 ± 2.2%; Number of cells having neurites with a length at least two times the diameter of each cell/total number of cells ([1]; 0.1 mM): 30.2 ± 6.4%

**Q.** Which results are given for CN(C(=O)c1ccccc1)c1ccnc(N2CCC(C)(C)CC2)n1 [Compound 2116]?
**A.** LD50 at 24 h (Acute toxicity on mice): 500 to 1000 mg/kg; Number of cells having neurites with a length at least two times the diameter of each cell/total number of cells ([1]; 0.1 mM): 34.2 ± 3.8%; Number of cells having neurites with a length at least two times the diameter of each cell/total number of cells ([1]; 0.3 mM): 8.2 ± 3.6%
